Experiment [1] addresses T1, huFAP (Homo sapiens, UniProt Q12884).
T1 sequence (Q12884 1-760): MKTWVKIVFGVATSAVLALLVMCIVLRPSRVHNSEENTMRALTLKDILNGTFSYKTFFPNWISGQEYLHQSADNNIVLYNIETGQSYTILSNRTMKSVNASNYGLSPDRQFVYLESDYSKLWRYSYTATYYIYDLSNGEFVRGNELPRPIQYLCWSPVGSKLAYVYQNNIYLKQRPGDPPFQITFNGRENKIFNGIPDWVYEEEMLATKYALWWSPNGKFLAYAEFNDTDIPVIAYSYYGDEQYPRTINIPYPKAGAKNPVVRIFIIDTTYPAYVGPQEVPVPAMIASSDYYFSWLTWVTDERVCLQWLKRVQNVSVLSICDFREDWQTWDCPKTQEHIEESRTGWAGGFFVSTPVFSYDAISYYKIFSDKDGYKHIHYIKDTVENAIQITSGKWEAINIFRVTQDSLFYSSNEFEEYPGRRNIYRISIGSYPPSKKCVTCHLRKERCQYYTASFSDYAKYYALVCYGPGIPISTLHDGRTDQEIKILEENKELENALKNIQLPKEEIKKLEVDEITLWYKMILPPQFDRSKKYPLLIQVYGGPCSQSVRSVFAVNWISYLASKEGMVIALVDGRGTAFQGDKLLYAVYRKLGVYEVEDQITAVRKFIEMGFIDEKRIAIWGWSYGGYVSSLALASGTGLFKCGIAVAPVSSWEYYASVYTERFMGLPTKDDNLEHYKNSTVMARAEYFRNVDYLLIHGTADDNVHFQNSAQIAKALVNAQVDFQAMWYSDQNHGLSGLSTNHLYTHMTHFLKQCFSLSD
In words: Recombinant enzymatic inhibition assay, huFAP (Z-Gly-Pro-AMC). It counts as biochemical. To be noted: n = 3, picture: nM ± 95% CI. As to the method:
All enzymatic assays were performed in black 384-well plates, and enzymatic activity was measured on a microplate reader, monitoring the fluorescence at λEX 350 nm/λEM 485 nm. […] Val-boroPro (10^− 4 M) and assay buffer served as a positive and negative control, respectively. To measure inhibition of PREP, 50 µL of the reaction mixture containing 1 µM Z-Gly-Pro-AMC and 10 ng PREP (R&D Systems; Minneapolis, MN, USA) were used. The enzymatic assay of DPP4 contained substrate (100 µM), DPP4 (Abcam; Cambridge, UK) (10 nM), assay buffer, and increasing concentrations of the inhibitors (10^− 10 M to 10^− 4 M). Sitagliptin (10^− 4 M) and assay buffer were used as a positive and negative control, respectively. H-Gly-Pro-AMC (100 µM) in assay buffer was used as a baseline control. The plates were analyzed in a Hidex Sense Microplate reader (Hidex; Turku, Finland) at 37 °C under dark conditions for 1 h (huFAP), 2 h (muFAP), or 30 min (PREP, DPP4). For all assays, the components were kept on ice before plating.
All statistical analyses were performed with GraphPad Prism version 9.0 (San Diego, California USA). All IC50 values were determined using a non-linear regression Log(inhibitor) vs. response analysis with variable slope (four parameters). For the in vivo results outliers were identified by a ROUT test (Q = 1%) and excluded. Next, a two-tailed student’s t-test was performed (*p < 0.05, **p < 0.01, ***p < 0.001). All experiments were performed in triplicate and repeated at least three times.

Experiment [2] has as its target T2, dipeptidyl peptidase IV (DPP4) (Homo sapiens, UniProt P27487).
T2 construct: purchased Abcam
In words: Enzymatic inhibition assay, DPP4. The format is biochemical. The settings on record: recombinant DPP4, n = 3; picture: nM ± 95% CI. The procedure:
All experiments were performed in triplicate and repeated at least three times.

Experiment [3] has as its target T3, huFAP (HT1080-huFAP cells) (Homo sapiens, UniProt Q12884).
T3 construct: expressed in transfected cells; host or cells: HT1080 (human sarcoma), stably transduced; provided by Prof; Dr. Uwe Haberkorn, University of Heidelberg
T3 sequence (Q12884 1-760): T1 sequence (Q12884 1-760)
The experiment can be described thus: [^111In]In-FAPI-46 displacement assay on FAP-expressing cells. The format is binding. The settings on record: 10^-9 M [^111In]In-FAPI-46, 45 min, n = 3, picture: nM ± 95% CI. As to the method:
Cell experiments were performed with the human sarcoma HT1080 cell line, stably transduced with human FAP (HT1080-huFAP) which were kindly provided by Prof. Dr. Uwe Haberkorn from the University of Heidelberg. The wild type HT1080 (ATTC), hereafter HT080-WT, was used as a negative control. Additionally, the pancreatic stellate cells PS-1, obtained from Queen Mary University, were used as an endogenously FAP expressing cell line. HT1080-huFAP and HT1080-WT cells were cultured in DMEM Glutamax© (Gibco; Breda, The Netherlands) and the PS-1 cells were cultured in RPMI (Gibco). Both media were supplemented with 10% FBS (Gibco), 100 UI/mL penicillin, and 100 µg/mL streptomycin (Merck Life Science NV; Amsterdam, The Netherlands). All cell lines were regularly passaged at 80% confluence and cultured at 37 °C, 5% CO2.
In vitro displacement studies of eFAP-6 and eFAP-7, as well as specificity and uptake assays, were performed using HT0180-huFAP cells. One day prior to the assay 100,000 cells were seeded in a 12-well plate in triplicate. […] For the uptake assay, the cells were incubated with 1 nM [^111In]In-eFAP-6 or [^111In]In-FAPI-46 for different time points (5–120 min) in the presence and absence of 1 mM UAMC-1110 to determine the specificity of^111 radiotracer binding. In both assays, the cells were washed twice with PBS after incubation and were subsequently lysed using 1 M NaOH for 20 min. The cell lysates were collected and radioactivity was measured in a γ-counter (PerkinElmer), simultaneously with 100 µL of the radioactive incubation medium as a standard. […] Uptake was expressed as percentage added activity per 200,000 cells (% AA/200,000 cells), and specific uptake was corrected by subtracting the uptake measured in the block wells.
All statistical analyses were performed with GraphPad Prism version 9.0 (San Diego, California USA). All IC50 values were determined using a non-linear regression Log(inhibitor) vs. response analysis with variable slope (four parameters). […]

The IC50 is the concentration that inhibits the measured activity by half.

T2 sequence (P27487 whole entry, species assumed): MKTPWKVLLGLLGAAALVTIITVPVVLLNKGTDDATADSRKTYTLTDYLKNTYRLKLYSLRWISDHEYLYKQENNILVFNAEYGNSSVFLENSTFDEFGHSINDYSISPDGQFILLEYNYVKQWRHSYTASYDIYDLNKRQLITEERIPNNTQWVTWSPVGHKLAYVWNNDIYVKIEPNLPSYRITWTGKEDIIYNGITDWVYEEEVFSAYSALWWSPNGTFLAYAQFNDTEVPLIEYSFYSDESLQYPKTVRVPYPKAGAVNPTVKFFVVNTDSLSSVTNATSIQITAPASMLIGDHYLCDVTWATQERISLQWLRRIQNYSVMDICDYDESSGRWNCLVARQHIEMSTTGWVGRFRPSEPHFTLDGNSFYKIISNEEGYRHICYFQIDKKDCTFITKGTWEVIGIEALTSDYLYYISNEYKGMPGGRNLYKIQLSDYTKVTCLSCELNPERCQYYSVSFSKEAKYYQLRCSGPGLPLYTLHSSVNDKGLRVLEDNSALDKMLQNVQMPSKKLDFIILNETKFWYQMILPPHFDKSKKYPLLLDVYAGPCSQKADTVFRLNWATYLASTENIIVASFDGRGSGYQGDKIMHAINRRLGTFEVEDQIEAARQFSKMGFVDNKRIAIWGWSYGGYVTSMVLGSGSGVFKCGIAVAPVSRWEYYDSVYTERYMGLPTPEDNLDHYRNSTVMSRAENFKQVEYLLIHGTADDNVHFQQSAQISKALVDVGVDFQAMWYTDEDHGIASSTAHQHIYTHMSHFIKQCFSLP

Take `CN1/C(=C/C=C/C=C/C2=[N+](CCCCCC(=O)NCCCOc3cccc4c(C(=O)NCC(=O)N5CC(F)(F)C[C@H]5C#N)ccnc34)c3ccc(S(=O)(=O)[O-])cc3C2(C)C)C(C)(C)c2cc(S(=O)(=O)O)ccc21` [eFAP-7, 1-(6-((3-((4-((2-((S)-2-cyano-4,4-difluoropyrrolidin-1-yl)-2-oxoethyl)carbamoyl)quinolin-8-yl)oxy)propyl)amino)-6-oxohexyl)-3,3-dimethyl-5-sulfo-2-((1E,3E)-5-((E)-1,3,3-trimethyl-5-sulfoindolin-2-ylidene)penta-1,3-dien-1-yl)-3H-indol-1-ium]: the results for the 50% inhibitory concentration (IC50) in experiment [1], in experiment [2] and in experiment [3] were 4.23 ± 0.5 nM, 612000 ± 42700 nM and 1 ± 0.36 nM, respectively.
`N#C[C@@H]1CC(F)(F)CN1C(=O)CNC(=O)c1ccnc2c(OCCCNC(=O)CN3CCN(CC(=O)O)CCN(CC(=O)O)CCN(CC(=O)O)CC3)cccc12` [eFAP-6, (S)-2,2',2''-(10-(2-((3-((4-((2-(2-cyano-4,4-difluoropyrrolidin-1-yl)-2-oxoethyl)carbamoyl)quinolin-8-yl)oxy)propyl)amino)-2-oxoethyl)-1,4,7,10-tetraazacyclododecane-1,4,7-triyl)triacetic acid]: the 50% inhibitory concentration (IC50) was found to be 1.16 ± 0.04 nM in experiment [1], 58600 ± 11400 nM in experiment [2] and 0.62 ± 0.26 nM in experiment [3].
For the molecule `CN(CCCN1CCN(C(=O)CN2CCN(CC(=O)O)CCN(CC(=O)O)CCN(CC(=O)O)CC2)CC1)c1ccc2nccc(C(=O)NCC(=O)N3CC(F)(F)C[C@H]3C#N)c2c1` [FAPI-46, reference compound], the results for the 50% inhibitory concentration (IC50) in experiment [1] and in experiment [3] were 3.87 ± 2.7 nM and 1.42 ± 0.29 nM, respectively.

Values taken from article PMC11286609, “In vitro and in vivo analyses of eFAP: a novel FAP-targeting small molecule for radionuclide theranostics and other oncological interventions” (EJNMMI Radiopharmacy and Chemistry, 2024).
